What was measured:
Swiss-type male mice = test: RotaRod performance test, motor coordination; details: for Mice residence time on the rotational cylinder: 9 rpm, cut off 180 s, mean ± SEM; for animal residence time on the rotational cylinder compared to controls: 15 minutes after administration
Experimental: The assessment of motor coordination in mice, by the rotarod performance test, was carried out to detect any possible sedative or muscle relaxant effect caused by the compounds of the present invention, previously tested in acute and neuropathic pain models. This test was carried out according to the method of described by Dunham & Miya and animal motor coordination was evaluated using RotaRod apparatus [Dunham M. S. & Miya. R. T. (1957). J. Amer. Pharmac. Assoc. Sci. Edit. 1957, 46, 208-209].
The RotaRod apparatus (Model 412 EFF, Insight Equipements, Brazil) is a device that measures motor coordination and thus evaluates balance alterations in mice. The apparatus consists of an acrylic box splited into four compartments with a rotational cylinder among them. The cylinder rotates at constant speed driven by a motor and regulated to the constant speed mode of 5-37 revolutions per minute (rpm). In this study the speed was set up to 9 rpm.
To remain on the rotational cylinder, the animal needs to move around, so that the motor coordination can be quantified. The four compartments have drop detection system, through the impact, a microprocessor circuit, for timing the permanence of the animal at the compartment, and for counting the number of falls.
The day before the test, Swiss-type male mice (19-25 g) were placed on the rotational cylinder, set up to the constant speed mode of 9 rpm for adaptation and learning. A group of 10 mice were used for each tested compound, and the total period spent on the rotational cylinder (in seconds) was recorded for a period of 180 seconds (cut off time) and it was accept a maximum of three falls for each animal. Motor coordination was assessed at times 0 (before treatment), 15, 30, 60 and 120 minutes after compounds administration at a dose of 32.25 μmol/kg.
All compounds were administered intraperitoneally (ip).
The Student's t-test was also used to compare means between two experimental groups. Differences were considered significant when p<0.05.

Swiss mice = test: Hot plate model, assay for acute pain; format: in vivo; details: ip, 32.25 μmol/kg
[1] = system: rats subjected to sciatic nerve CCI; test: Chronic constrictive injury (CCI) of the sciatic nerve, thermal hyperalgesia, paw withdrawal test; format: in vivo, rat; details: for increase in latency of paw withdrawal: since the 3rd day of treatment
Experimental: The chronic constrictive injury (CCI) was induced by sciatic nerve ligation according to the method described by Bennett and Xie [Bennett. G. J.; Xie, Y. K. Pain […], 33: 87-107]. Male Wistar rats, weighing 180-240 g, were anesthetized with a mixture of ketamine and xylazine (60 mg/kg and 5 mg/kg, respectively), intraperitoneally. Through an incision of 0.5 cm (parallel and spaced about 10 mm from the left femur) the sciatic nerve was identified. With a thin glass rod, a small segment of sciatic nerve was exposed and four loosely ligatures were placed around the sciatic nerve spaced 1 mm each other using a 3-0 silk suture thread. After the procedure, the skin was sutured and a topical antiseptic was applied.
To assess animal behavior in response to hyperalgesic phenomenon resulting from sciatic nerve chronic constrictive injury, the model described by Hargreaves and Dubner was used [Hargreaves K., Dubner R., Brown F., Flores C., Joris J. Pain 1988, 32 (1): 77-88]. In this regard, paw withdrawal in response to a painful phenomenon was performed. This is a nociceptive test which involves a peripheral short thermal stimulus induced by the radiant heat of an incandescent lamp bulb. […] Radiant heat has an advantage over the other modes of thermal stimulation in that it produces no tactile stimulus. [Le Bars D., Gozariu M., Cadden S. W. Pharmacology Reviews, 2001, 53 (4), 597-652]. In this assay, a plantar test analgesimeter (ITC Life Science Inc, USA) was used.
Animals were placed in transparent acrylic boxes with tempered glass pane floor for 40 minutes to acclimate. After this period, the radiant heat was applied to the footpads of animals's hindpaws until they make the movement of paw withdrawal. The paw withdrawal latency was defined as the time recorded from the beginning of the radiant heat stimulus and the paw withdrawal. For each paw, three latency records were made, and the average value was used to define the paw withdrawal time control The maximum time that each animal was exposed to the radiant heat source (cut-off) was defined as three times the paw withdrawal time control, to avoid tissue injuries in animals's paws.
The day before surgery, rats, defined as “control before surgery”, were placed in acrylic boxes to the paw withdrawal test. On the 7th day after the surgery (CCI), the paw withdrawal test was again performed in order to verify neuropathic pain has been effectively developed in the left paw—defined as “post-surgery control.”
The paw withdrawal test was assessed during the days 1, 3, and 7 of the treatment (with amitriptyline hydrochloride or the compounds of examples of the instant invention) and on days 1, 3, and 7 after treatment interruption.
(§1) Differences were considered significant when p<0.05.

rats subjected to SNL = test: Spinal nerve ligation (SNL) L5 model, mechanical allodynia (digital Von Frey); format: in vivo, rat; details: for reversal of allodynia signs associated with neuropathic pain: ip during 7 days, 32.25 μmol/kg; for paw withdrawal threshold, mechanical allodynia: after 3 days of treatment, 32.25 μmol/kg ip, p<0.05
Experimental: This experimental model was proposed by Kim and Chung [Kim, S. H.; Chung, J. M. Pain 1992, 50: 355-363] and consists of ligation of spinal nerves. Male Wistar rats, 180-220 g, were anesthetized with a mixture of ketamine and xylazine (60 mg/kg and 5 mg/kg, respectively) intraperitoneally. After the dorsal region asepsy, an incision was made between L5 and S1. The L6 transverse process was removed for locating the nerves L4 and L5, which were carefully isolated, and tight ligation of the L5 nerve with 6.0 silk thread was made, interrupting flow of the axon of the nerve. After this procedure, para-spinal muscles and skin were sutured, and then a topical antiseptic was applied. False operated animals (sham) were subjected to the same procedure, however the spinal nerve was not ligated.
To evaluate the development of mechanical allodynia, digital analgesimeter (Model EFF301; Insight Equipments), digitalized version coupled to a pointed filament (Von Frey model variant) was used. This test aims to assess changes in tactile sensitivity in response to a mechanical stimulus as a result of a neural damage. The device consisted of a hand-held force transducer fitted with a sensor tip, through which a pressure with increasing strength is applied against the footpad of the animals hindpaw to assess the threshold of paw withdrawal, that is, the digital analgesimeter records the maximal strength, in grams (g), in which the animal withstands until the paw withdrawal reflex.
Animals were placed in individual acrylic boxes and let to acclimate for 30 min before the beginning of the test. After this period, the thresholds of hindpaw withdrawal were determinded. For each hindpaw, five records of the withdrawal thresholds were made, and the average for each hindpaw was defined as the paw withdrawal threshold control.
The treatment started on the 7th day after surgery. Compounds were diluted in water or DMSO and administered through intraperitoneal route on daily basis, during 7 days, at a dose of […]. The effectiveness of tested compounds was assessed on days 1, 3, and 7 days after treatment, always before the next administration of the compound. Latencies were also assessed on days 1, 3, and 7 after treatment interruption.
as §1

[2] = T 15 min after ip administration, 32.25 μmol/kg
[3] = T 30 min after ip administration, 32.25 μmol/kg (diazepam 2 mg/kg)
[4] = T 60 min after ip administration, 32.25 μmol/kg (diazepam 2 mg/kg)
[5] = T 120 min after ip administration, 32.25 μmol/kg (diazepam 2 mg/kg)
[6] = first day of treatment, 32.25 μmol/kg ip
[7] = 32.25 μmol/kg ip, p<0.05 or p<0.005

Compound | Mice residence time on the rotational cylinder (Swiss-type male mice; [2]) [s] | Mice residence time on the rotational cylinder (Swiss-type male mice; [3]) [s] | Mice residence time on the rotational cylinder (Swiss-type male mice; [4]) [s] | Mice residence time on the rotational cylinder (Swiss-type male mice; [5]) [s] | side effects compared to morphine (Swiss mice) | antinociceptive effect, paw withdrawal latency vs post-surgery control [1, 6] | latency increase, statistical significance ([1]; first day of treatment, 32.25 μmol/kg ip, p<0.05 or p<0.005) | reversal of allodynia signs associated with neuropathic pain (rats subjected to SNL) | animal residence time on the rotational cylinder compared to controls (Swiss-type male mice; 32.25 μmol/kg) | increase in latency of paw withdrawal [1, 7] | paw withdrawal threshold, mechanical allodynia (rats subjected to SNL) | onset of significant increase in latency ([1]; 5 mg/kg ip) | reversal of signs of thermal hyperalgesia ([1]; 5 mg/kg ip during 7 days) | onset of significant increase in latency ([1]; 10 mg/kg ip) | reversal of signs of thermal hyperalgesia ([1]; 10 mg/kg ip during 7 days) | analgesic effect on mechanical allodynia after treatment interruption (rats subjected to SNL; after 7 days of 32.25 μmol/kg ip)
CCOC(=O)C1(c2ccccc2)CCN(CCc2conc2-c2ccc(F)cc2)CC1.Cl [C17, Ethyl 1-{2-[3-(4-fluorophenyl)-1,2-oxazol-4-yl]ethyl}-4-phenylpiperidine-4-carboxylate hydrochloride] | 127.4 | 153.3 | 163.2 | 175.6 | no side effects of conventional morphine | antinociceptive effects in the first day of treatment | the latency increase was statistically significant | effective in reverse the hyperalgesia and allodynia signs | – | – | – | – | – | – | – | –
Cl.OC1(c2ccc(Cl)cc2)CCN(CCc2conc2-c2ccc(F)cc2)CC1 [C15, 4-(4-chlorophenyl)-1-{2-[3-(4-fluorophenyl)-1,2-oxazol-4-yl]ethyl}piperidin-4-ol hydrochloride] | 180.0 | 179.0 | 179.2 | 180.0 | no side effects of conventional morphine | antinociceptive effects in the first day of treatment | – | effective in reverse the hyperalgesia and allodynia signs | equal to the time observed for the negative control, and significantly higher than the time observed for the control amitriptyline hydrochloride | statistically significant increase in latency of paw withdrawal | – | – | – | – | – | –
Cl.Cl.Fc1ccc(-c2n[nH]cc2CCN2CCOCC2)cc1.O [C9, 4-{2-[3-(4-fluorophenyl)-1H-pyrazol-4-yl]ethyl}morpholine dihydrochloride monohydrate] | 180.0 | 180.0 | 180.0 | 175.3 | no side effects of conventional morphine | – | – | effective in reverse the hyperalgesia and allodynia signs | equal to the time observed for the negative control, and significantly higher than the time observed for the control amitriptyline hydrochloride | statistically significant increase in latency of paw withdrawal | – | – | – | – | – | –
CN1CCN(CCc2c[nH]nc2-c2ccc(F)cc2)CC1.Cl.Cl.Cl.O.O [C11, 1-{2-[3-(4-fluorophenyl)-1H-pyrazol-4-yl]ethyl}-4-methylpiperazine trihydrochloride dihydrate] | 180.0 | 177.0 | 178.5 | 176.7 | no side effects of conventional morphine | antinociceptive effects in the first day of treatment | – | effective in reverse the hyperalgesia and allodynia signs | equal to the time observed for the negative control, and significantly higher than the time observed for the control amitriptyline hydrochloride | statistically significant increase in latency of paw withdrawal | significant (p<0.05) paw withdrawal threshold | – | – | – | – | –
Cl.Cl.Fc1ccc(-c2n[nH]cc2CCN2CCCCC2)cc1.O [C3, 1-{2-[3-(4-fluorophenyl)-1H-pyrazol-4-yl]ethyl}piperidine dihydrochloride monohydrate] | 180.0 | 178.2 | 178.7 | 180.0 | no side effects of conventional morphine | antinociceptive effects in the first day of treatment | – | – | equal to the time observed for the negative control, and significantly higher than the time observed for the control amitriptyline hydrochloride | statistically significant increase in latency of paw withdrawal | significant (p<0.05) paw withdrawal threshold | significant increase in latency starting on day 3 of treatment | effective in reversing the signs of thermal hyperalgesia | significant increase in latency starting on day 3 of treatment | effective in reversing the signs of thermal hyperalgesia | analgesic effect is maintained until the first day after treatment interruption
